Where two headings read alike, the source gives them in different places.
What was measured:
[1] = test system: pEBOV Zaire (Mayinga variant); assay: microbe, parasite or virus in culture; format: cell-based, Zaire ebolavirus; details: for IC50: read-out: IC50 (μM) pEBOV
ER = details: cited from earlier work; for Kd: read-out: Kd for ER
[2] = test system: infectious EBOV Zaire (Kikwit variant); format: cell-based, Zaire ebolavirus
pMARV (Musoke variant) = assay: microbe, parasite or virus in culture; format: cell-based, Marburg virus; details: read-out: IC50 (μM) pMARV
pMLAV = format: cell-based, Měnglà virus
pVSV = format: cell-based, vesicular stomatitis virus
ERα = format: cell-based, human
pAIV-H5N1 = format: cell-based, H5N1 avian influenza virus
pTFV = format: cell-based, ebolavirus Tai Forest
pRESTV = format: cell-based, ebolavirus Reston
[3] = test system: infectious MARV (Angola variant); format: cell-based, Marburg virus
[4] = Human immunodeficiency virus 1, A549, 48 h

Compound: CN(C)CCOc1ccc(/C(=C(/CCCl)c2ccccc2)c2ccccc2)cc1 [Compound 1, Toremifene]
- IC50 [1, 4]: < 0.1 µM

Compound: CC/C(=C(\c1ccccc1)c1ccc(OCCN(C)C)cc1)c1ccccc1 [Compound 5, Tamoxifen]
- ER affinity (ER): 13.8 nM

Compound: COc1ccc2c(c1)CCC(c1ccccc1)=C2c1ccc(OCCN2CCCC2)cc1 [Compound 6, Nafoxidine]
- IC50 [1, 4]: 0.1 ± 0.009 µM

Compound: Cc1c(-c2ccc(O)cc2)nn(-c2ccc(O)cc2)c1-c1ccc(OCCN2CCCCC2)cc1 [Compound 23, MPP]
- Kd (ER): 0.0018 µM

Compound: CC/C(=C(/c1ccc(N)cc1)c1ccc(OCCN2CCCC2)cc1)c1ccccc1 [Compound 27, (E)-4-(2-phenyl-1-(4-(2-(pyrrolidin-1-yl)ethoxy)phenyl)but-1-en-1-yl)aniline]
- fold weaker than 9 [2]: 10 fold

Compound: CC/C(=C(/c1ccc(NCCN2CCCC2)cc1)c1ccc(OCCN2CCCC2)cc1)c1ccccc1 [Compound 28, (E)-4-(2-phenyl-1-(4-(2-(pyrrolidin-1-yl)ethoxy)phenyl)but-1-en-1-yl)-N-(2-(pyrrolidin-1-yl)ethyl)aniline]
- IC50 (pMARV (Musoke variant); [4]): > 12.5 µM

Compound: CC/C(=C(/c1ccc(NC(=O)C2CCN(C)C2)cc1)c1ccc(OCCN2CCCC2)cc1)c1ccccc1 (stereo not drawn) [Compound 32, (E)-1-methyl-N-(4-(2-phenyl-1-(4-(2-(pyrrolidin-1-yl)ethoxy)phenyl)but-1-en-1-yl)phenyl)pyrrolidine-3-carboxamide]
- inhibition of viral entry (in words) (pMLAV): improved potency
- inhibition of pVSV (in words) (pVSV): Neither compounds showed appreciable inhibition
- antagonist activity at ER (in words) (ERα): no antagonist activity
- inhibition of pAIV-H5N1 (in words) (pAIV-H5N1): Neither compounds showed appreciable inhibition
- inhibition of viral entry (in words) (pTFV): improved potency
- inhibition of viral entry (in words) (pRESTV): improved potency

Compound: (E)-1-methyl-N-(4-(2-phenyl-1-(4-(2-(pyrrolidin-1-yl)ethoxy)phenyl)but-1-en-1-yl)phenyl)piperidine-4-carboxamide [Compound 30]
- inhibition of viral entry (in words) (pMLAV): improved potency
- inhibition of pVSV (in words) (pVSV): Neither compounds showed appreciable inhibition
- antagonist activity at ER (in words) (ERα): no antagonist activity
- fold more potent than 1 [3]: 6 fold
- IC50 ([3]; read-out: IC50 (μM) MARV): 0.64 ± 0.12 µM
- inhibition of pAIV-H5N1 (in words) (pAIV-H5N1): Neither compounds showed appreciable inhibition
- inhibition of viral entry (in words) (pTFV): improved potency
- inhibition of viral entry (in words) (pRESTV): improved potency
- IC50 (pMARV (Musoke variant)): 0.54 ± 0.05 µM
- IC50 [1]: 0.01 ± 0.005 µM
- fold more potent than 1 [2]: 10 fold
- IC50 ([2]; read-out: IC50 (μM) EBOV): 0.09 ± 0.03 µM

Compound: Acolbifene [Compound 10]
- fold weaker than 1 [1]: more than 20 fold
- IC50 [1]: 1.5 ± 0.3 µM

Source: paper PMC7904233 (Journal of medicinal chemistry, 2020)
